Data published in patent publication US20250213614A1, “Modified RELA Protein for Inducing Interferon Expression and Engineered Immune Cells with Improved Interferon Expression” (Institut Curie, priority 2022, published 2025).

B1: IRF3: interferon Regulatory Factor 3, over-expressed from lentivector (protein, UniProt Q14653 1-427, looked up)
Interferon regulatory factor 3: MGTPKPRILPWLVSQLDLGQLEGVAWVNKSRTRFRIPWKHGLRQDAQQEDFGIFQAWAEATGAYVPGRDKPDLPTWKRNFRSALNRKEGLRLAEDRSKDPHDPHKIYEFVNSGVGDFSQPDTSPDTNGGGSTSDTQEDILDELLGNMVLAPLPDPGPPSLAVAPEPCPQPLRSPSLDNPTPFPNLGPSENPLKRLLVPGEEWEFEVTAFYRGRQVFQQTISCPEGLRLVGSEVGDRTLPGWPVTLPDPGMSLTDRGVMSYVRHVLSCLGGGLALWRAGQWLWAQRLGHCHTYWAVSEELLPNSGHGPDGEVPKDKEGGVFDLGPFIVDLITFTEGSGRSPRYALWFCVGESWPQDQPWTKRLVMVKVVPTCLRALVEMARVGGASSLENTVDLHISNSHPLSLTSDQYKAYLQDLVEGMDFQGPGES

How the values were obtained:
Format in all cases: cell-based, human
CD4+ T cells = assay: IFN-I/III quantification (LEGENDplex) in CD4+ T cells, baseline or after STING stimulation
Experimental: (§1) Plasmapheresis blood pockets were obtained from healthy adult volunteers after informed consent from the EFS (Establishment of French blood collection). Peripheral blood mononuclear cells (PBMCs) were isolated using Ficoll-Paque Plus (GE-17144003) and left overnight at 4° C. in RPMI (Thermo fischer #61870-010) with 10% heat-decomplemented fetal bovine serum (FBS, Eurobio #CVFSVFO0-01). CD14+ cells were enriched by positive selection (Miltenyi #130-050-201), the CD14 negative fraction was subsequently used to isolate total CD4+ T cells by negative selection (Stem Cell #17952). CD14+ cells were cultured in RPMI containing 10% FBS, 5% Penicillin-Streptomycin (PS, Thermo Fisher #10378-016), 50 μg/ml Gentamicin (Thermo Fisher #15750-045) and 10 mM HEPES (Thermo Fisher #15630-056). CD14+ cells were differentiated ex vivo into MDDC by supplementing the culture media with 50 ng/ml IL-4 (Miltenyi #130-093-922) and 10 ng/ml GM-CSF (Miltenyi #130-093-867). MDDC were used for experiments 3 or 4 days following the start of the culture. CD14+ cells were differentiated ex vivo into macrophages by adding 50 ng/ml MCSF (Miltenyi #130-096-492) to the culture media containing RPMI with 1% PS, 5% FBS and 5% human serum (Sigma #H4522). MDM were used 7 days following culture. Freshly isolated CD4+ T cells were cultured in X-VIVO 15 (Lonza #BE02-060F) and activated using anti-CD3 and anti-CD28 Dynabeads (fisher scientific #10548353) at the ratio of 1:5 (bead:cell). 100 U/ml human IL-2 (Immunotools #11340027) was added to cultures 2 days following TCR stimulation and media with IL-2 was replenished every 48 hours. To assess proliferation, freshly isolated CD4+ T cells were stained with cell proliferation dye (thermo fischer #65-0840-85) prior to TCR stimulation.
(§2) CD14+ cells were plated at 1 million cells/ml and transduced with equal volumes of freshly harvested SIV-VLPs and pTRIP-SFFV vectors in the presence of 8 μg/ml protamine (Sigma #P4020). CD4+ T cells were transduced with lentivectors 24 hours post-TCR stimulation in 100 μl of cells (0.2 million cells) and 100 μl of freshly harvested lentivirus in the presence of 8 μg/ml protamine. T cells were spinoculated at 1200 g for 2 hours at 25° C. 0.5 million THP-1 cells in 500 μl media (RPMI 10% FBS 1% PS) were transduced with 500 μl freshly harvested lentivirus in the presence of 8 μg/ml protamine. 1 μg/ml Puromycin (Invivogen #ant-pr-1) was added 2 days post-transduction when cells were transduced with pLKO.1-puro plasmid.
For stimulation of STING by extracellular ligands, 2.5 μg of ADUS100 (invivogen #tlrl-nacda2r-01) or 2′3′-cGAMP (cGAMP, invivogen #tlrl-nacga23-02) was added to 100,000 cells in 100 μl media either on freshly isolated primary cells or 3-4 days post differentiation for MDDC and 3 days post-TCR stimulation for CD4+ T cells. Cells and supernatant were harvested 18-24 hours post stimulation. For delivery of STING ligands after permeabilization, T cells were used 3 or 4 days post TCR stimulation and MDDC were used 3-4 days following differentiation. 150,000 cells were plated in round bottom 96-well plate. Media was removed by centrifugation and 20 μl 2× permeabilization buffer (100 mM HEPES, 200 mM KCl, 6 mM MgCl2, 0.2 mM DTT, 170 mM Sucrose, 2 mM ATP, 2 mM GTP, 0.4% bovine serum albumin (BSA), 20 μg/ml digitonin) and 20 μl cGAMP (12 μg/ml) was added to cells. 18 to 20 hours following stimulation supernatants and cells were harvested. Cells were stained with a fixable viability dye (Invitrogen #65-0865-14) and acquired on a FACSVerse (BD). […]
Where indicated, cells were treated with 5-Azacytidine (5AZA, Sigma #A2385) 48 hours prior to cGAMP stimulation. Fresh 5AZA was added daily to cells, and media was replenished with 5AZA following cGAMP stimulation. 100 nM Trichostatin A (TSA) (sigma #T1952) was added to cells following cGAMP stimulation and left overnight. […]

MDDC = assay: IFN-I/III quantification (LEGENDplex) in MDDC after STING stimulation
Experimental: as §1, §2
For stimulation of STING by extracellular ligands, 2.5 μg of ADUS100 (invivogen #tlrl-nacda2r-01) or 2′3′-cGAMP (cGAMP, invivogen #tlrl-nacga23-02) was added to 100,000 cells in 100 μl media either on freshly isolated primary cells or 3-4 days post differentiation for MDDC and 3 days post-TCR stimulation for CD4+ T cells. Cells and supernatant were harvested 18-24 hours post stimulation. For delivery of STING ligands after permeabilization, T cells were used 3 or 4 days post TCR stimulation and MDDC were used 3-4 days following differentiation. 150,000 cells were plated in round bottom 96-well plate. Media was removed by centrifugation and 20 μl 2× permeabilization buffer (100 mM HEPES, 200 mM KCl, 6 mM MgCl2, 0.2 mM DTT, 170 mM Sucrose, 2 mM ATP, 2 mM GTP, 0.4% bovine serum albumin (BSA), 20 μg/ml digitonin) and 20 μl cGAMP (12 μg/ml) was added to cells. 18 to 20 hours following stimulation supernatants and cells were harvested. Cells were stained with a fixable viability dye (Invitrogen #65-0865-14) and acquired on a FACSVerse (BD).
For experiments with conditioned media, CD4+ T cell- and MDDC-conditioned media refer to […] filtered conditioned media from cultures of activated CD4+ T cell and MDDC, respectively. CD4+ T cells were pretreated with 100 μl of MDDC-conditioned media or of fresh MDDC culture media, 24 hours prior to cGAMP stimulation. […]

cGAS = assay: cGAMP quantification by ELISA in CD4+ T cells; settings: CD4+ T cells expressing RELA K5R or IRF3, FIG. 5B
Experimental: For cGAS stimulation, 2 μg of control GFP plasmid DNA (provided in the kit) was nucelofected in 2 million T cells 72 hours post TCR stimulation (Lonza #VPA-1002) using the programme T020 (Lonza #Nucleofector 2b). Cells were harvested at 4 hours and 24 hours after nucleofection for analysis.
Cell pellets were stored at −80° C. until extraction. Frozen pellets were fixed in 80% cold methanol and subjected to 5 freeze-thaw cycles in liquid nitrogen. Samples were then centrifuged at 16,000 g for 20 minutes at 4° C. The supernatants were further subjected to drying in Savant DNA Speed Vac DNA 110 at 65° C. for 2 hours. The pellets were resuspended in 100 μl RNase- and DNase-free water and cGAMP was quantified by ELISA as per manufacturers protocol (Interchim #501700). cGAMP quantity was normalized to cell numbers and represented as pg/million cells.

Row | Molecule | expression of IFNλ1 and IRF7 (CD4+ T cells; RELA K5R expressed in CD4+ T cells, no stimulation) | IFNλ1 after cGAMP stimulation (CD4+ T cells; lentivector overexpression in CD4+ T cells, FIG. 2B, 2D, 2F) | IFNα2 in response to cGAMP (CD4+ T cells; lentivector overexpression in CD4+ T cells, FIG. 2D, 2F) | baseline IFNλ1 expression (CD4+ T cells; lentivector overexpression in CD4+ T cells, no cGAMP, FIG. 2D, 2F) | increase in IFNλ1 at baseline (MDDC; MDDC, monocyte-derived macrophages (MDM) or THP-1 cells, data not shown) | IFN-I/III response to cGAMP compared to the control condition (MDDC; lentivector overexpression in MDDC, cGAMP 6 μg/ml, FIG. 2D) | cellular cGAMP (cGAS) | IFNα2 response to cGAMP (CD4+ T cells; IRF3 over-expression alone in CD4+ T cells, FIG. 3B) | IFNβ (CD4+ T cells; IRF3 over-expression alone in CD4+ T cells, cGAMP, FIG. 3B) | augmentation of cGAMP-mediated IFNλ1, IFNα2 and IFNβ production (MDDC; IRF3 over-expression in MDDC, cGAMP 6 μg/ml, FIG. 3B) [fold]
1 | RELA K5R: RELA mutant converting five lysine residues (K122, K123, K310, K314, K315) to arginine, expressed from lentivector | sufficient to induce | augmented in response to cGAMP | detectable | increased baseline IFNλ1 expression | not observed | remained unchanged | no significant increase | – | – | –
2 | B1 | – | – | – | – | – | – | no significant increase | only to a small extent | remained undetectable | 10
